Results on 24 compounds are retold here after EP4667458A1 (Kanaph Therapeutics Inc., priority 2023, dated 2024).

The structures appear in SMILES notation.

The term IC50 denotes the point on the concentration scale where inhibition reaches its midpoint. High values mean weaker potency in that assay, low ones greater potency in that assay.

This assay deals with T1, KRAS^G12C::SOS1 (Homo sapiens, UniProt Q07889).
T1 sequence (Q07889 1-1333): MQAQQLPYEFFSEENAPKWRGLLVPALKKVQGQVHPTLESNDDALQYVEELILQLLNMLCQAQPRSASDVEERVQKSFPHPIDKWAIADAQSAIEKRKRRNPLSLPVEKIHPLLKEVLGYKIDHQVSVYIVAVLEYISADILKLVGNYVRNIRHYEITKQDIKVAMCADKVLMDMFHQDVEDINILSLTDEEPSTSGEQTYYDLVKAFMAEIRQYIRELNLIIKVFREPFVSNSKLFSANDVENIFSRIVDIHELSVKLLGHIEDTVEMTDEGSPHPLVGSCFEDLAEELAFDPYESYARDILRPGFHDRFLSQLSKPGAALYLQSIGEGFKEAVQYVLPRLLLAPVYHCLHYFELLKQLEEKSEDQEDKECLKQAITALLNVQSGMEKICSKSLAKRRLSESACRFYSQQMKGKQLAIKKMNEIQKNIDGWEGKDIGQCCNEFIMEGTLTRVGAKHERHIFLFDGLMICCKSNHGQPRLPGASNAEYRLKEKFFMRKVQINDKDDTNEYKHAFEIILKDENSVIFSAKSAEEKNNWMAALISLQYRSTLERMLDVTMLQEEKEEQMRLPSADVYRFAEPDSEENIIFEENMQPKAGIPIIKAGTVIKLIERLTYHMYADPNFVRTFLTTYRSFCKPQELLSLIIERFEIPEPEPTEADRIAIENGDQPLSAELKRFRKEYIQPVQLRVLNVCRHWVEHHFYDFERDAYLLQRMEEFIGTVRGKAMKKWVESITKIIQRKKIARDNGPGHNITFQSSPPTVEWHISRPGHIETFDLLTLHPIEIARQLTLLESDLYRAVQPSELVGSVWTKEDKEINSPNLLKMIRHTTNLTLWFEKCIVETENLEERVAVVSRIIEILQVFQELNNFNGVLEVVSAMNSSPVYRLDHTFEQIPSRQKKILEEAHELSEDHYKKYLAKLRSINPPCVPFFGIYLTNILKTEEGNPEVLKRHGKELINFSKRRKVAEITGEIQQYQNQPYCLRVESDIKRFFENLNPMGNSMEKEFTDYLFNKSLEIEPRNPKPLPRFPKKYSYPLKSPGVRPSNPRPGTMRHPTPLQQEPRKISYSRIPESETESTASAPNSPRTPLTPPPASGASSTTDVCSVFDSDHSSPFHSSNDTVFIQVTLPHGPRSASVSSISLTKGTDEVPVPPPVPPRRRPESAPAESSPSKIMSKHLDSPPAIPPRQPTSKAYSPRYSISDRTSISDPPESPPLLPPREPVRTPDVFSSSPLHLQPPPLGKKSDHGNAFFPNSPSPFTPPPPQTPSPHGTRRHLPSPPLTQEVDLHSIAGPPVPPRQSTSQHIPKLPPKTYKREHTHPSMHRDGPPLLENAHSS
Nature of the assay: KRAS G12C::SOS1 protein-protein interaction (PPI) inhibition assay (HTRF binding kit). For orientation: In TR-FRET formats the signal depends on donor and acceptor labels being close together.
`Cc1ncnn1-c1cccc(-n2nc(C(=O)N[C@H](C)c3cc(N)cc(C(F)(F)F)c3)ccc2=O)c1` [Example 211, N-[(1R)-1-[3-amino-5-(trifluoromethyl)phenyl]ethyl]-1-[3-(5-methyl-1,2,4-triazol-1-yl)phenyl]-6-oxo-pyridazine-3-carboxamide] gave a half-inhibitory concentration (IC50) of less than 1000 nM.

On to `C[C@@H](NC(=O)c1cc(N)c(=O)n(-c2ccccc2)n1)c1cc(N)cc(C(F)(F)F)c1` [Example 213, 5-amino-N-[(1R)-1-[3-amino-5-(trifluoromethyl)phenyl]ethyl]-6-oxo-1-phenyl-pyridazine-3-carboxamide], for which the IC50 was less than 1000 nM.

Regarding `Cc1cc(C(=O)N[C@H](C)c2cc(N)cc(C(F)(F)F)c2)nn(-c2ccccc2)c1=O` [Example 214, N-[(1R)-1-[3-amino-5-(trifluoromethyl)phenyl]ethyl]-5-methyl-6-oxo-1-phenyl-pyridazine-3-carboxamide], the IC50 was less than 1000 nM.

With `COc1ccc(-n2nc(C(=O)N[C@H](C)c3cccc(C(F)(F)CO)c3F)ccc2=O)c(F)c1` [Example 215, N-[(1R)-1-[3-(1,1-difluoro-2-hydroxy-ethyl)-2-fluoro-phenyl]ethyl]-1-(2-fluoro-4-methoxy-phenyl)-6-oxo-pyridazine-3-carboxamide], the IC50 is less than 1000 nM.

For `C[C@@H](NC(=O)c1ccc(=O)n(-c2ccccc2F)n1)c1cc(N)cc(C#N)c1F` [Example 216, N-[(1R)-1-(5-amino-3-cyano-2-fluoro-phenyl)ethyl]-1-(2-fluorophenyl)-6-oxo-pyridazine-3-carboxamide], the 50% inhibitory concentration (IC50) lay in the range of 1000 to 10000 nM.

Take `C[C@@H](NC(=O)c1ccc(=O)n(-c2ccccc2F)n1)c1cccc(C(F)(F)CO)c1F` [Example 217, N-[(1R)-1-[3-(1,1-difluoro-2-hydroxy-ethyl)-2-fluoro-phenyl]ethyl]-1-(2-fluorophenyl)-6-oxo-pyridazine-3-carboxamide]: the concentration for half-maximal inhibition (IC50) is less than 1000 nM.

Take `C[C@@H](NC(=O)c1ccc(=O)n(-c2ccccc2F)c1)c1cc(N)cc(C(F)(F)F)c1` [Example 218, N-[(1R)-1-[3-amino-5-(trifluoromethyl)phenyl]ethyl]-1-(2-fluorophenyl)-6-oxo-pyridine-3-carboxamide]: the IC50 was less than 1000 nM.

`C[C@@H](NC(=O)c1ccc(=O)n(-c2ccccc2)n1)c1cc(O)cc(F)c1` [Example 219, N-[(1R)-1-(3-fluoro-5-hydroxy-phenyl)ethyl]-6-oxo-1-phenyl-pyridazine-3-carboxamide] returned a half-maximal inhibitory concentration (IC50) of less than 1000 nM.

The compound `C[C@@H](NC(=O)c1nn(-c2ccccc2)c(=O)cc1Cl)c1cc(N)cc(C(F)(F)F)c1` [Example 220, N-[(1R)-1-[3-amino-5-(trifluoromethyl)phenyl]ethyl]-4-chloro-6-oxo-1-phenyl-pyridazine-3-carboxamide] registered an IC50 of less than 1000 nM.

In turn, `C[C@@H](NC(=O)c1ccc(=O)[nH]n1)c1cc(N)cc(C(F)(F)F)c1` [Example 221, N-[(1R)-1-[3-amino-5-(trifluoromethyl)phenyl]ethyl]-6-oxo-1H-pyridazine-3-carboxamide] displayed a half-inhibitory concentration (IC50) of less than 1000 nM.

For `COCCn1nc(C(=O)N[C@H](C)c2cc(N)cc(C(F)(F)F)c2)ccc1=O` [Example 222, N-[(1R)-1-[3-amino-5-(trifluoromethyl)phenyl]ethyl]-1-(2-methoxyethyl)-6-oxo-pyridazine-3-carboxamide], the IC50 is less than 1000 nM.

`C[C@@H](NC(=O)c1ccc(=O)n(CCO)n1)c1cc(N)cc(C(F)(F)F)c1` [Example 223, N-[(1R)-1-[3-amino-5-(trifluoromethyl)phenyl]ethyl]-1-(2-hydroxyethyl)-6-oxo-pyridazine-3-carboxamide] yielded a half-maximal inhibitory concentration (IC50) of less than 1000 nM.

`C[C@@H](NC(=O)c1ccc(=O)n(CC2CC2)n1)c1cc(N)cc(C(F)(F)F)c1` [Example 224, N-[(1R)-1-[3-amino-5-(trifluoromethyl)phenyl]ethyl]-1-(cyclopropylmethyl)-6-oxo-pyridazine-3-carboxamide] returned an IC50 of less than 1000 nM.

In turn, `C[C@@H](NC(=O)c1ccc(=O)n(Cc2ccccn2)n1)c1cc(N)cc(C(F)(F)F)c1` [Example 225, N-[(1R)-1-[3-amino-5-(trifluoromethyl)phenyl]ethyl]-6-oxo-1-(2-pyridylmethyl)pyridazine-3-carboxamide] registered an IC50 of less than 1000 nM.

On to `C[C@@H](NC(=O)c1ccc(=O)n(CCF)n1)c1cc(N)cc(C(F)(F)F)c1` [Example 226, N-[(1R)-1-[3-amino-5-(trifluoromethyl)phenyl]ethyl]-1-(2-fluoroethyl)-6-oxo-pyridazine-3-carboxamide], for which the IC50 was less than 1000 nM.

As to `C[C@@H](NC(=O)c1ccc(=O)n(Cc2ccccc2)n1)c1cc(N)cc(C(F)(F)F)c1` [Example 227, N-[(1R)-1-[3-amino-5-(trifluoromethyl)phenyl]ethyl]-1-benzyl-6-oxo-pyridazine-3-carboxamide], the half-maximal inhibitory concentration (IC50) is less than 1000 nM.

With `C[C@@H](NC(=O)c1ccc(=O)n(C)n1)c1cc(N)cc(C(F)(F)F)c1` [Example 228, N-[(1R)-1-[3-amino-5-(trifluoromethyl)phenyl]ethyl]-1-methyl-6-oxo-pyridazine-3-carboxamide], the IC50 was less than 1000 nM.

`C[C@@H](NC(=O)c1ccc(=O)n(CCN(C)C)n1)c1cc(N)cc(C(F)(F)F)c1` [Example 229, N-[(1R)-1-[3-amino-5-(trifluoromethyl)phenyl]ethyl]-1-[2-(dimethylamino)ethyl]-6-oxo-pyridazine-3-carboxamide] returned an IC50 of 1000 to 10000 nM.

`C[C@@H](NC(=O)c1ccc(=O)n(-c2cccc(C(=O)N3CCCC3)c2F)n1)c1cc(N)cc(C(F)(F)F)c1` [Example 230] returned an IC50 of less than 1000 nM.

As to `CNC(=O)c1cccc(-n2nc(C(=O)N[C@H](C)c3cc(N)cc(C(F)(F)F)c3)ccc2=O)c1F` [Example 231, (R)-N-(1-(3-amino-5-(trifluoromethyl)phenyl)ethyl)-1-(2-fluoro-3-(methylcarbamoyl)phenyl)-6-oxo-1,6-dihydropyridazine-3-carboxamide], the IC50 is less than 1000 nM.

In turn, `COCCNC(=O)c1cccc(-n2nc(C(=O)N[C@H](C)c3cc(N)cc(C(F)(F)F)c3)ccc2=O)c1F` [Example 232, (R)-N-(1-(3-amino-5-(trifluoromethyl)phenyl)ethyl)-1-(2-fluoro-3-((2-methoxyethyl)carbamoyl)phenyl)-6-oxo-1,6-dihydropyridazine-3-carboxamide] had an IC50 of less than 1000 nM.

Compound `C[C@@H](NC(=O)c1ccc(=O)n(-c2cccc(C(=O)N3CCOCC3)c2F)n1)c1cc(N)cc(C(F)(F)F)c1` [Example 233, (R)-N-(1-(3-amino-5-(trifluoromethyl)phenyl)ethyl)-1-(2-fluoro-3-(morpholine-4-carbonyl)phenyl)-6-oxo-1,6-dihydropyridazine-3-carboxamide] had an IC50 of less than 1000 nM.

Take `CCNC(=O)c1cccc(-n2nc(C(=O)N[C@H](C)c3cc(N)cc(C(F)(F)F)c3)ccc2=O)c1F` [Example 234, (R)-N-(1-(3-amino-5-(trifluoromethyl)phenyl)ethyl)-1-(3-(ethylcarbamoyl)-2-fluorophenyl)-6-oxo-1,6-dihydropyridazine-3-carboxamide]: the IC50 is less than 1000 nM.

Regarding `C[C@@H](NC(=O)c1ccc(=O)n(-c2cccc(-c3nnco3)c2)n1)c1cc(N)cc(C(F)(F)F)c1` [Example 235, N-[(1R)-1-[3-amino-5-(trifluoromethyl)phenyl]ethyl]-1-[3-(1,3,4-oxadiazol-2-yl)phenyl]-6-oxo-1,6-dihydropyridazine-3-carboxamide], the IC50 was less than 1000 nM.
